{"source": "patent US20260297060A1", "about": "“COMPOUNDS FOR THE DEGRADATION OF MUTANT BRAF” (C4 THERAPEUTICS, INC., priority 2023, published 2026)", "system": "A375 human melanoma xenografts", "assay": "In vivo therapeutic efficacy in A375 human melanoma xenografts (tumor volume, T/C, TGI), Example 14", "design": "species or system human tumor in female BALB/c nude mice", "description": "Agents were tested in the A375 human melanoma xenografts. Compound 26 and Compound 141 were administered to BALB/c nude mice bearing A375 tumors from PG-DO and dosed via PO twice a day (BID) or third a day (TIP) or dosed P daily (QD) from PG-D. Dabrafenib was administered to BALB/c nude mice bearing A375 tumors from PG-D1 and dosed via P daily (QD). Compound 26 was dosed at 1.5 mg/kg (QD), 2 mg/kg (TID), 3 mg/kg (BID), 6 mg/kg (QD) and 10 mg/kg (BID) for 21 days. Compound 141 was dosed at 0.75 mg/kg (BID), 1 mg/kg (TID), 1.5 mg/kg (BID), 3 mg/kg (QD) and 5 mg/kg (BID) for 21 days. Dabrafenib was dosed at 100 mg/kg for 21 days. This study was non-GLP.\nOne hundred and thirty-eight female BALB/c nude Mus Musculus mice procured from Shanghai Lingchang Biological Science and Technology Co., LTD between the ages of six to eight weeks and with body weight between eighteen and twenty-two grams were used for the study. A spare mouse was also procured.\nThe A375 tumor cells were maintained in vitro in DMEM medium supplemented with 10% fetal bovine serum and 1% Penicillin-Streptomycin at 37° C. in an atmosphere of 5% CO2 in air. The tumor cells were routinely sub-cultured twice weekly. The cells growing in an exponential growth phase were harvested and counted for tumor inoculation.\nEach mouse was inoculated subcutaneously at the right flank with A375 cells (5×10^6) in 0.2 mL of PBS supplemented with Matrigel (PBS: Matrigel=1:1) for tumor development. Animals were grouped for efficacy study on day 15 after tumor inoculation when the average tumor volume reached 220 mm^3. The test articles administration and the animal numbers in each group are shown in the above experimental Table 75.\nAt the time of routine monitoring, the animals were checked daily for any effects of tumor growth and treatments on normal behavior such as mobility, food and water consumption (by looking only), body weight gain/loss (body weights were measured twice weekly), eye/hair matting and any other abnormal effect as stated in the protocol. Death and observed clinical signs were recorded on the basis of the numbers of animals within each subset.\nPrior to the onset of drug treatment, mice were measured for tumor size in two dimensions using a caliper, and the tumor volume (mm^3) was calculated using formula V=0.5 a×b^2 where a and b are the long and short diameters of the tumor in mm, respectively. Mice were randomized into different treatment groups based on the tumor volume.\nThe major endpoint was to see if the tumor growth could be delayed or mice could be cured. The tumor size was then used for calculations of T/C value. The T/C value (in percent) is an indication of antitumor effectiveness; T and C are the mean volumes of the treated and control groups, respectively on specified day.\nTGI was calculated for each group using the formula: TGI (%)=[1−(Ti−T0)/(Ci−C0)]×100; Ti is the average tumor volume of a treatment group on a given day, T0 is the average tumor volume of the treatment group on the day of treatment start, Ci is the average tumor volume of the vehicle control group on the same day with Ti, and C0 is the average tumor volume of the vehicle group on the day of treatment start.\nA one-way ANOVA followed by Dunnett's multiple comparison test was performed to compare tumor volume among vehicle group (Group 1) and treatment groups (Group 2-Group 12). All data were analyzed using GraphPad Prism, ns indicates p>0.05, * indicates p<0.05, ** indicates p<0.01, *** indicates p<0.001 and **** indicates p<0.0001.\nTumor growth inhibition of Compound 26, Compound 141 and dabrafenib in the treatment of female BALB/c nude mice bearing A375 xenografts was calculated based on tumor volume measured on […]. TGI and T/C were calculated respectively and the data are detailed in Table 82.", "key": {"[1]": {"conditions": "2 mg/kg p.o. TID × 21 days, PG-D21"}}, "data": [{"molecule": "CCN(C)S(=O)(=O)Nc1ccc(F)c(Oc2ccc3ncn([C@H]4COC5(CCN(C6CC7(C6)CN(c6cc8c(cc6F)c(N6CCC(=O)NC6=O)nn8C)C7)CC5)C4)c(=O)c3c2)c1C#N", "note": "[Compound 26, (3R)-3-[6-[2-cyano-3-[[ethyl(methyl)sulfamoyl]amino]-6-fluoro-phenoxy]-4-oxo-quinazolin-3-yl]-8-[2-[3-(2,4-dioxohexahydropyrimidin-1-yl)-5-fluoro-1-methyl-indazol-6-yl]-2-azaspiro[3.3]heptan-6-yl]-1-oxa-8-azaspiro[4.5]decane]", "values": [{"measurement": "Tumor volume", "setting": "1.5 mg/kg p.o. BID x 21 days, day 0, mean ± SEM", "value": "220 ± 16", "unit": "mm^3"}, {"measurement": "Tumor volume", "setting": "1.5 mg/kg p.o. BID x 21 days, day 4, mean ± SEM", "value": "249 ± 21", "unit": "mm^3"}, {"measurement": "Tumor volume", "setting": "1.5 mg/kg p.o. BID x 21 days, day 7, mean ± SEM", "value": "227 ± 23", "unit": "mm^3"}, {"measurement": "Tumor volume", "setting": "1.5 mg/kg p.o. BID x 21 days, day 11, mean ± SEM", "value": "210 ± 26", "unit": "mm^3"}, {"measurement": "Tumor volume", "setting": "1.5 mg/kg p.o. BID x 21 days, day 14, mean ± SEM", "value": "204 ± 26", "unit": "mm^3"}, {"measurement": "Tumor volume", "setting": "1.5 mg/kg p.o. BID x 21 days, day 18, mean ± SEM", "value": "271 ± 44", "unit": "mm^3"}, {"measurement": "Tumor volume", "setting": "1.5 mg/kg p.o. BID x 21 days, day 21, mean ± SEM", "value": "400 ± 70", "unit": "mm^3"}, {"measurement": "Tumor volume", "setting": "1.5 mg/kg p.o. BID x 21 days, day 25 (dosing-free regrowth), mean ± SEM", "value": "730 ± 94", "unit": "mm^3"}, {"measurement": "Tumor volume", "setting": "1.5 mg/kg p.o. BID x 21 days, day 28 (dosing-free regrowth), mean ± SEM", "value": "1006 ± 99", "unit": "mm^3"}, {"measurement": "Tumor volume", "setting": "1.5 mg/kg p.o. BID x 21 days, day 32 (dosing-free regrowth), mean ± SEM", "value": "1224 ± 99", "unit": "mm^3"}, {"measurement": "Tumor volume", "setting": "1.5 mg/kg p.o. BID x 21 days, day 35 (dosing-free regrowth), mean ± SEM", "value": "1497 ± 94", "unit": "mm^3"}, {"measurement": "Tumor volume", "setting": "1.5 mg/kg p.o. BID x 21 days, day 39 (dosing-free regrowth), mean ± SEM", "value": "1978 ± 148", "unit": "mm^3"}, {"measurement": "Tumor volume", "setting": "1.5 mg/kg p.o. BID x 21 days, day 42 (dosing-free regrowth), mean ± SEM", "value": "2420 ± 205", "unit": "mm^3"}, {"measurement": "Tumor volume", "setting": "1.5 mg/kg p.o. BID x 21 days, day 46 (dosing-free regrowth), mean ± SEM", "value": "2759 ± 274", "unit": "mm^3"}, {"measurement": "Tumor volume", "setting": "1.5 mg/kg p.o. BID x 21 days, day 49 (dosing-free regrowth), mean ± SEM", "value": "2514 ± 268", "unit": "mm^3"}, {"measurement": "Tumor volume", "setting": "1.5 mg/kg p.o. BID x 21 days, day 53 (dosing-free regrowth), mean ± SEM", "value": "3087 ± 444", "unit": "mm^3"}, {"measurement": "Tumor volume", "setting": "1.5 mg/kg p.o. BID x 21 days, day 56 (dosing-free regrowth)", "value": 3153, "unit": "mm^3"}, {"measurement": "Tumor volume", "setting": "2 mg/kg p.o. TID x 21 days, day 0, mean ± SEM", "value": "220 ± 15", "unit": "mm^3"}, {"measurement": "Tumor volume", "setting": "2 mg/kg p.o. TID x 21 days, day 4, mean ± SEM", "value": "172 ± 13", "unit": "mm^3"}, {"measurement": "Tumor volume", "setting": "2 mg/kg p.o. TID x 21 days, day 7, mean ± SEM", "value": "99 ± 9", "unit": "mm^3"}, {"measurement": "Tumor volume", "setting": "2 mg/kg p.o. TID x 21 days, day 11, mean ± SEM", "value": "68 ± 8", "unit": "mm^3"}, {"measurement": "Tumor volume", "setting": "2 mg/kg p.o. TID x 21 days, day 14, mean ± SEM", "value": "51 ± 7", "unit": "mm^3"}, {"measurement": "Tumor volume", "setting": "2 mg/kg p.o. TID x 21 days, day 18, mean ± SEM", "value": "36 ± 4", "unit": "mm^3"}, {"measurement": "Tumor volume", "setting": "2 mg/kg p.o. TID x 21 days, day 21, mean ± SEM", "value": "41 ± 5", "unit": "mm^3"}, {"measurement": "Tumor volume", "setting": "2 mg/kg p.o. TID x 21 days, day 25 (dosing-free regrowth), mean ± SEM", "value": "85 ± 16", "unit": "mm^3"}, {"measurement": "Tumor volume", "setting": "2 mg/kg p.o. TID x 21 days, day 28 (dosing-free regrowth), mean ± SEM", "value": "156 ± 32", "unit": "mm^3"}, {"measurement": "Tumor volume", "setting": "2 mg/kg p.o. TID x 21 days, day 32 (dosing-free regrowth), mean ± SEM", "value": "292 ± 57", "unit": "mm^3"}, {"measurement": "Tumor volume", "setting": "2 mg/kg p.o. TID x 21 days, day 35 (dosing-free regrowth), mean ± SEM", "value": "441 ± 86", "unit": "mm^3"}, {"measurement": "Tumor volume", "setting": "2 mg/kg p.o. TID x 21 days, day 39 (dosing-free regrowth), mean ± SEM", "value": "754 ± 156", "unit": "mm^3"}, {"measurement": "Tumor volume", "setting": "2 mg/kg p.o. TID x 21 days, day 42 (dosing-free regrowth), mean ± SEM", "value": "980 ± 198", "unit": "mm^3"}, {"measurement": "Tumor volume", "setting": "2 mg/kg p.o. TID x 21 days, day 46 (dosing-free regrowth), mean ± SEM", "value": "1320 ± 265", "unit": "mm^3"}, {"measurement": "Tumor volume", "setting": "2 mg/kg p.o. TID x 21 days, day 49 (dosing-free regrowth), mean ± SEM", "value": "1646 ± 332", "unit": "mm^3"}, {"measurement": "Tumor volume", "setting": "2 mg/kg p.o. TID x 21 days, day 53 (dosing-free regrowth), mean ± SEM", "value": "2216 ± 435", "unit": "mm^3"}, {"measurement": "Tumor volume", "setting": "2 mg/kg p.o. TID x 21 days, day 56 (dosing-free regrowth), mean ± SEM", "value": "2482 ± 579", "unit": "mm^3"}, {"measurement": "Tumor Size on PG-D21 (Mean ± SEM)", "setting": "2 mg/kg p.o. TID × 21 days", "value": "41 ± 5", "unit": "mm^3"}, {"measurement": "T/C", "setting": "[1]", "value": 2.2, "unit": "%"}, {"measurement": "TGI", "setting": "[1]", "value": 110.8, "unit": "%"}, {"measurement": "Tumor volume", "setting": "3 mg/kg p.o. BID x 21 days, day 0, mean ± SEM", "value": "220 ± 15", "unit": "mm^3"}, {"measurement": "Tumor volume", "setting": "3 mg/kg p.o. BID x 21 days, day 4, mean ± SEM", "value": "219 ± 16", "unit": "mm^3"}, {"measurement": "Tumor volume", "setting": "3 mg/kg p.o. BID x 21 days, day 7, mean ± SEM", "value": "136 ± 11", "unit": "mm^3"}, {"measurement": "Tumor volume", "setting": "3 mg/kg p.o. BID x 21 days, day 11, mean ± SEM", "value": "83 ± 6", "unit": "mm^3"}, {"measurement": "Tumor volume", "setting": "3 mg/kg p.o. BID x 21 days, day 14, mean ± SEM", "value": "52 ± 5", "unit": "mm^3"}, {"measurement": "Tumor volume", "setting": "3 mg/kg p.o. BID x 21 days, day 18, mean ± SEM", "value": "45 ± 7", "unit": "mm^3"}, {"measurement": "Tumor volume", "setting": "3 mg/kg p.o. BID x 21 days, day 21, mean ± SEM", "value": "48 ± 9", "unit": "mm^3"}, {"measurement": "Tumor volume", "setting": "3 mg/kg p.o. BID x 21 days, day 25 (dosing-free regrowth), mean ± SEM", "value": "129 ± 75", "unit": "mm^3"}, {"measurement": "Tumor volume", "setting": "3 mg/kg p.o. BID x 21 days, day 28 (dosing-free regrowth), mean ± SEM", "value": "258 ± 165", "unit": "mm^3"}, {"measurement": "Tumor volume", "setting": "3 mg/kg p.o. BID x 21 days, day 32 (dosing-free regrowth), mean ± SEM", "value": "423 ± 234", "unit": "mm^3"}, {"measurement": "Tumor volume", "setting": "3 mg/kg p.o. BID x 21 days, day 35 (dosing-free regrowth), mean ± SEM", "value": "578 ± 289", "unit": "mm^3"}, {"measurement": "Tumor volume", "setting": "3 mg/kg p.o. BID x 21 days, day 39 (dosing-free regrowth), mean ± SEM", "value": "878 ± 311", "unit": "mm^3"}, {"measurement": "Tumor volume", "setting": "3 mg/kg p.o. BID x 21 days, day 42 (dosing-free regrowth), mean ± SEM", "value": "1129 ± 390", "unit": "mm^3"}]}]}
